US12435083B2, “Cyclopropyl-(hetero)aryl-substituted ethylsulphonyl-pyridine derivatives” (BOEHRINGER INGELHEIM VETMEDICA GMBH, priority 2021, dated 2025)
Where two headings read alike, the source gives them in different places.

Key:
[1] = test system: adult Ctenocephalides felis fleas; assay: Ingestion activity (flea membrane feeding, blood feeding) against adult Ctenocephalides felis; conditions: for activity against fleas (flea membrane feeding and flea contact assays), in words: in vitro profiling
Excerpt: Example 6: Screening Method to Test Ingestion Activity of Compounds of Formula (I) Against Adult Ctenocephalides felis
(§1) The four structurally closest prior art compounds (A), (B), (C) and (D) specifically excluded from the scope of formula (I) were characterized vis-a-vis selected compounds of formula (I) with regard to their potency in in vitro screening assays against fleas (Ctenocehalides felis) and ticks (Rhipicephalus sanguineus).
It is important to note that compounds that show better activity versus ticks are more desirable in the animal health field, as ticks are more difficult to control than fleas. Noteworthy, in particular with regard to fleas the illustrated comparative data are based on a flea membrane feeding (ingestion, blood feeding) assay. Data from this assay are more relevant for compounds intended to be delivered systemically to an animal via oral or injectable routes. Membrane feeding assays differ to primary screening laboratory contact assays in that the latter only measure the effect of the direct contact of selected compounds on the parasite, such as the flea or the tick. The information derived from laboratory contact assays is strictly limited to the ability of the compound to be absorbed through the parasite surface and to reach its molecular target, and no information can be gleaned from these contact assays as to whether the compound would also be active when presented orally to the ectoparasite itself in a blood meal, such as with the membrane feeding assay, and certainly not when administered orally to an animal host (e.g. “in vivo”) with subsequent exposure to the ectoparasite.
(§2) However, as explained above, spectrum of action against this range of species (i.e. fleas and ticks) is a desirable property of ectoparasiticides for veterinary use. In the following table 1 comparative experimental data of the in vitro assays are shown regarding flea membrane feeding (ingestion, blood feeding) activity against Ctenocephalides felis and contact activity against Rhipicephalus sanguineus.

[2] = test system: adult Rhipicephalus sanguineus ticks; assay: Contact activity against adult Rhipicephalus sanguineus (coated vial, mortality at 48 h); conditions: for activity against ticks (tick contact assay), in words: in vitro profiling
Experimental: Example 5: Screening Method to Test Contact Activity of Compounds of Formula (I) Against Adult Rhipicephalus sanguineus
Compounds of formula (I) formulated in 100% DMSO were diluted in a solution containing acetone and Triton X-100 (0.02%). The resulting formulation was used to coat the inner walls of glass scintillation vials and the filter paper covering the cap of the vial. Once dried, ten adult R. sanguineus ticks were added to the vials. The vials were incubated at 24° C., 95% relative humidity, and 12 hours of light/12 hours of dark until evaluation. Ticks were visually evaluated for mortality at 48 hours post-treatment. Compound efficacy at a given dose is expressed as percentage mortality. A dose response series was implemented to determine EC50 values.
as §1, §2

[3] = test system: adult Ctenocephalides felis fleas; assay: Contact activity against adult Ctenocephalides felis (treated surface, motility by machine vision, 24 h); conditions: treated surface, 24h, read-out: EC80 (% motility reduction, adult C. felis, contact)
Excerpt: Example 7: Screening Method to Test Contact Activity of Compounds of Formula (I) Against Adult Ctenocephalides felis

Plutella xylostella = assay: Insecticidal test on Plutella xylostella (Chinese cabbage seedling dip); conditions: 144 h, 500 ppm, seedling dip, 6 days after dip treatment, read-out: activity level (corrected mortality rate), Plutella xylostella
Experimental: Example 12: Insecticidal Test on Plutella xylostella
The compounds of formula (I) of the present invention or salts thereof were separately dispersed in water and diluted to 500 ppm. Ten adults of Plutella xylostella were released onto Chinese cabbage seedlings and allowed to lay eggs thereon. 2 days after the release of the adults, the seedling was dipped in the dispersion for about 30 seconds. After air dried, the seedling was kept in a room at 25° C. 6 days after the dip treatment, the numbers of the dead and alive insects were counted. The corrected mortality rate was calculated according to the following formula and the insecticidal activity was evaluated according to the following criteria. Corrected mortality rate (%)=100×(Survival rate in an untreated plot−Survival rate in a treated plot)/Survival rate in an untreated plot • A: the corrected mortality rate is 100% • B: the corrected mortality rate is 90 to 99% • C: the corrected mortality rate is 80 to 89% • D: the corrected mortality rate is 50 to 79%

[4] = Ctenocephalides felis, 24 h, flea membrane feeding (ingestion, blood feeding) assay, EC80, read-out: C. felis membrane feeding (ingestion/blood feeding) activity EC80
[5] = Rhipicephalus sanguineus, contact assay, >100 μM = not active at the top concentration, read-out: R. sanguineus contact activity EC50
[6] = Ctenocephalides felis, bovine blood, 24h post treatment, read-out: EC80 (% motility reduction, adult C. felis, ingestion via membrane feeding)
[7] = Rhipicephalus sanguineus, 48 hours post-treatment, coated vial, read-out: EC50 (percentage mortality, adult R. sanguineus, contact)
[8] = flea membrane feeding (ingestion, blood feeding) assay, EC80, read-out: C. felis membrane feeding (ingestion/blood feeding) activity EC80
[9] = contact assay, >100 μM = not active at the top concentration, read-out: R. sanguineus contact activity EC50
[10] = flea membrane feeding (ingestion, blood feeding) assay, EC80

CCS(=O)(=O)c1cc(-c2ccc(C3(C#N)CC3)cc2)cnc1-n1ncc2ccc(C(F)(F)F)cc2c1=O [(A), reference compound]
EC80 [1, 4]: > 10 µM
activity against fleas (flea membrane feeding and flea contact assays), in words ([1]; Ctenocephalides felis): some activity
activity against ticks (tick contact assay), in words ([2]; Rhipicephalus sanguineus): no activity
EC50 [2, 5]: > 100 µM

CCS(=O)(=O)c1cc(-c2ccc(C3(C#N)CC3)cc2)cnc1-n1nc2ccc(C(F)(F)F)cn2c1=O [(B), reference compound]
EC80 [1, 4]: > 10 µM
activity against fleas (flea membrane feeding and flea contact assays), in words ([1]; Ctenocephalides felis): some activity
activity against ticks (tick contact assay), in words ([2]; Rhipicephalus sanguineus): no activity
EC50 [2, 5]: > 100 µM

CCS(=O)(=O)c1cc(-c2nc(C)cc(C3CC3)n2)cnc1-c1nc2cc(C(F)(F)F)ncc2n1C [(C), reference compound]
EC80 [1, 4]: > 10 µM
activity against fleas (flea membrane feeding and flea contact assays), in words ([1]; Ctenocephalides felis): some activity
activity against ticks (tick contact assay), in words ([2]; Rhipicephalus sanguineus): no activity
EC50 [2, 5]: > 100 µM

CCS(=O)(=O)c1cc(-c2ccc(C3CC3)cn2)cnc1-n1ncc(OCC(F)(F)C(F)(F)F)cc1=O [(D), reference compound]
EC80 [1, 4]: > 10 µM
activity against fleas (flea membrane feeding and flea contact assays), in words ([1]; Ctenocephalides felis): some activity
activity against ticks (tick contact assay), in words ([2]; Rhipicephalus sanguineus): no activity
EC50 [2, 5]: > 100 µM

CCS(=O)(=O)c1cc(-c2cc(C3CC3)ccn2)cnc1-c1nc2cc3c(cc2n1C)OC(F)(F)O3 [Compound 14, 6-(4-cyclopropyl-5′-(ethylsulfonyl)-[2,3′-bipyridin]-6′-yl)-2,2-difluoro-5-methyl-5H-[1,3]dioxolo[4′,5′:4,5]benzo[1,2-d]imidazole]
EC80 [3]: 1 to 10 µM

CCS(=O)(=O)c1cc(-c2ccc(C3CC3)cc2)cnc1-n1cc2ccc(C(F)(F)F)cc2n1 [Compound 46, 2-[5-(4-cyclopropylphenyl)-3-(ethanesulfonyl)pyridin-2-yl]-6-(trifluoromethyl)indazole]
EC80 [1, 4]: 1 to 10 µM
EC80 [1, 6]: 1 to 10 µM
EC50 [2, 7]: 10 to 100 µM
EC50 [2, 5]: 10 to 100 µM

CCS(=O)(=O)c1cc(-c2ccc(C3CC3)cc2)cnc1-n1cc2ncc(C(F)(F)F)cc2n1 [Compound 48, 5-(4-cyclopropylphenyl)-3-(ethanesulfonyl)-2-[6-(trifluoromethyl)pyrazolo[4,3-b]pyridin-2-yl]pyrid-ine]
EC80 [3]: 1 to 10 µM

CCS(=O)(=O)c1cc(-c2ccc(C3CC3)cc2)cnc1-c1cc2n(C(F)F)cc(C(F)(F)F)cc-2n1 [Compound 97]
mortality at 500 ppm (Plutella xylostella): 100%
EC80 [1, 4]: < 1 µM
EC50 [2, 5]: 10 to 100 µM

CCS(=O)(=O)c1cc(-c2ccc(C3CC3)cc2)cnc1-c1ncc(OCC(F)(F)C(F)(F)F)c(=O)n1C [Compound 110, 2-[5-(4-cyclopropylphenyl)-3-(ethanesulfonyl)pyridin-2-yl]-3-methyl-5-(2,2,3,3,3-pentafluoropropoxy)pyrimidin-4-one]
EC80 [3]: 1 to 10 µM

CCS(=O)(=O)c1cc(-c2ccc(C3(F)CC3)nc2)cnc1-c1nc2cc(C(F)(F)F)n(C3CC3)c(=O)c2n1C [Compound 176, 5-cyclopropyl-2-[5-(ethanesulfonyl)-6′-(1-fluorocyclopropyl)-[3,3′-bipyridin]-6-yl]-3-methyl-6-(trifluoromethyl)imidazo[4,5-c]pyridin-4-one]
EC80 [1, 6]: 1 to 10 µM
EC50 [2, 7]: 10 to 100 µM

CCS(=O)(=O)c1cc(-c2ccc(C3CC3)cc2)cnc1-n1ncc2ncc(C(F)(F)C(F)(F)F)cc21 [Compound 191, 5-(4-cyclopropylphenyl)-3-(ethanesulfonyl)-2-[6-(1,1,2,2,2-pentafluoroethyl)-1H-pyrazolo[4,3-b]pyridin-1-yl]pyridine]
mortality at 500 ppm (Plutella xylostella): 100%

C=CCn1cc(C(F)(F)F)cc2nc(-c3ncc(-c4ccc(C5(C#N)CC5)cc4)cc3S(=O)(=O)CC)c(F)c1-2 [Compound 198, 1-{4-[5-(ethanesulfonyl)-6-[3-fluoro-4-(prop-2-en-1-yl)-6-(trifluoromethyl)pyrrolo[3,2-b]pyridin-2-yl]pyridin-3-yl]phenyl}cyclopropane-1-carbonitrile]
EC80 [1, 6]: 1 to 10 µM

CCS(=O)(=O)c1cc(-c2ccc(C3CC3)cc2)cnc1-c1nc2cc(C(F)(F)F)cn(CC(F)F)c-2c1F [compound 12]
EC80 [1, 8]: <1 µM
EC50 [2, 9]: 10 to 100 µM

CCS(=O)(=O)c1cc(-c2ccc(C3(C#N)CC3)cc2)cnc1-c1nc2cc(C(F)(F)C(F)(F)F)cnc2n1C [compound 80]
EC80 [1, 8]: <1 µM
EC50 [2, 9]: 10 to 100 µM

CCS(=O)(=O)c1cc(-c2ccc(C3(C#N)CC3)cc2)cnc1-c1nc2cc(C(F)(F)F)n(C3CC3)c(=O)c2n1C [compound 88]
C. felis membrane feeding (ingestion/blood feeding) activity EC80 [1, 10]: 1 to 10 µM
EC50 [2, 9]: 10 to 100 µM

CCS(=O)(=O)c1cc(-c2ccc(C3CC3)nc2)cnc1-c1nc2cc(C(F)(F)F)n(C3CC3)c(=O)c2n1C [compound 89]
C. felis membrane feeding (ingestion/blood feeding) activity EC80 [1, 10]: 1 to 10 µM
EC50 [2, 9]: 10 to 100 µM

CCn1cc(C(F)(F)F)cc2nc(-c3ncc(-c4cccc(C5CC5)n4)cc3S(=O)(=O)CC)cc1-2 [compound 113]
mortality at 500 ppm (Plutella xylostella): 100%

CCS(=O)(=O)c1cc(-c2ccc(C3(F)CC3)cc2)cnc1-c1nc2cc(C(F)(F)F)n(C3CC3)c(=O)c2n1C [compound 124]
C. felis membrane feeding (ingestion/blood feeding) activity EC80 [1, 10]: 1 to 10 µM
EC50 [2, 9]: 10 to 100 µM

CCS(=O)(=O)c1cc(-c2ccc(C3(C#N)CC3)nc2)cnc1-c1nc2cc(C(F)(F)F)n(C3CC3)c(=O)c2n1C [compound 133]
C. felis membrane feeding (ingestion/blood feeding) activity EC80 [1, 10]: 1 to 10 µM
EC50 [2, 9]: 10 to 100 µM

CCS(=O)(=O)c1cc(-c2ccc(C3CC3(F)F)cc2)cnc1-c1nc2cc(C(F)(F)C(F)(F)F)nnc2n1C (stereo not shown) [compound 135]
C. felis membrane feeding (ingestion/blood feeding) activity EC80 [1, 10]: 1 to 10 µM
EC50 [2, 9]: 10 to 100 µM

CCS(=O)(=O)c1cc(-c2cc(C3CC3)nc(C)n2)cnc1-c1nc2cc(C(F)(F)C(F)(F)F)nnc2n1C [compound 142]
C. felis membrane feeding (ingestion/blood feeding) activity EC80 [1, 10]: 1 to 10 µM
EC50 [2, 9]: 10 to 100 µM

CCS(=O)(=O)c1cc(-c2ccc(C3CC3)nn2)cnc1-c1nc2cc(C(F)(F)C(F)(F)F)cnc2n1C [compound 153]
C. felis membrane feeding (ingestion/blood feeding) activity EC80 [1, 10]: 1 to 10 µM
EC50 [2, 9]: 10 to 100 µM

CCS(=O)(=O)c1cc(-c2nccc(C3CC3)n2)cnc1-c1nc2cc(C(F)(F)C(F)(F)F)cnc2n1C [compound 165]
EC80 [1, 8]: <1 µM
EC50 [2, 9]: 10 to 100 µM

CCS(=O)(=O)c1cc(-c2cc(C3CC3)nc(C)n2)cnc1-c1nc2cc(C(F)(F)C(F)(F)F)cnc2n1C [compound 166]
EC80 [1, 8]: <1 µM
EC50 [2, 9]: 10 to 100 µM

CCS(=O)(=O)c1cc(-c2cccnc2C2CC2)cnc1-c1nc2cc(C(F)(F)C(F)(F)F)cnc2n1C [compound 169]
C. felis membrane feeding (ingestion/blood feeding) activity EC80 [1, 10]: 1 to 10 µM
EC50 [2, 9]: 10 to 100 µM

CCS(=O)(=O)c1cc(-c2ccc(C3CC3)nc2)cnc1-c1nc2cc(SC(F)(F)F)nnc2n1C [compound 186]
EC80 [1, 8]: <1 µM
EC50 [2, 9]: < 10 µM

CCn1c(=O)c(C(F)(F)F)cc2nc(-c3ncc(-c4ccc(C5CC5)cc4)cc3S(=O)(=O)CC)n(C)c21 [compound 214, 2-[5-(4-cyclopropylphenyl)-3-(ethanesulfonyl)pyridin-2-yl]-4-ethyl-3-methyl-6-(trifluoromethyl)-3H,4H,5H-imidazo[4,5-b]pyridin-5-one]
EC80 [1, 6]: < 1 µM
